In patent US4232148A, “6-Deoxyneamines” (The Upjohn Company, priority 1979, dated 1980):
In brackets after ≈: the same amount, converted by molar mass. Like-named read-outs stand apart in the source and are kept apart here.

Experiments:
Type in all cases: cell-based
B. cereus UC 3145 = assay: standard disc plate assay, zone of inhibition; settings: 12.5 mm paper discs
From the text: (§1) The compounds of formulas (V, VII, IX, XI, XIV, XVI, and XIX) are active as antibacterials and can be used in various environments to erradicate or control susceptible microorganisms. Tables I and II set forth the in vitro antibacterial test results for representative compounds of the present invention. The results were obtained with a standard disc plate assay using 12.5 mm paper discs.

B. subtilis UC 564 = assay: standard disc plate assay, zone of inhibition; settings: 12.5 mm paper discs
From the text: as §1

E. coli UC 51 = assay: standard disc plate assay, zone of inhibition; settings: 12.5 mm paper discs
From the text: as §1

K. pneumoniae UC 57 = assay: standard disc plate assay, zone of inhibition; settings: 12.5 mm paper discs
From the text: as §1

P. vulgaris UC 93 [1] = assay: standard disc plate assay, zone of inhibition; settings: 12.5 mm paper discs
From the text: as §1

Ps. aeruginosa UC 95 [2] = assay: standard disc plate assay, zone of inhibition; settings: 12.5 mm paper discs
From the text: as §1

S. aureus UC 80 = assay: standard disc plate assay, zone of inhibition; settings: 12.5 mm paper discs
From the text: as §1

S. gallinarum UC 265 = assay: standard disc plate assay, zone of inhibition; settings: Salmonella enterica, read-out: Zones of Inhibition
From the text: as §1

S. lutea UC 130 = assay: standard disc plate assay, zone of inhibition; settings: Micrococcus luteus, UC130, read-out: Zones of Inhibition
From the text: as §1

S. schottmeulleri UC 126 = assay: standard disc plate assay, zone of inhibition; settings: 12.5 mm paper discs
From the text: as §1

D. pneumoniae UC 41 = assay: standard microplate test in BHI Agar, MIC; settings: Streptococcus pneumoniae, UC41, 37°, 20 hours, read-out: Minimal Inhibitory Concentration
Method: (§2) The compounds VII, XI, XVβ, XVα and XVI were tested in a standard microplate test in BHI (Brain Heart Infusion) Agar at a concentration of 1 mg./ml. and dilutions thereof at 37° incubation temperature. The end points are read at 20 hours. BHI Agar is supplied by Difco Laboratories, Detroit, Mich., U.S.A. and has the following compositions:
(§3) Calf brains, infusion from: 200 gm.
(§4) Beef heart, infusion from: 250 gm.
(§5) Bacto Proteose-peptone, Difco: 10 gm.
(§6) Bacto-Dextrose, Difco: 1 gm.
(§7) Disodium phosphate: 2.5 gm.

E. coli UC 311 = assay: standard microplate test in BHI Agar, MIC; settings: Escherichia coli, UC311, 20 h, read-out: Minimal Inhibitory Concentration
Method: as §2, §3, §4, §5, §6, §7

K. pneumoniae UC 58 = assay: standard microplate test in BHI Agar, MIC; settings: Klebsiella pneumoniae, UC58, 20 h
Method: as §2, §3, §4, §5, §6, §7

P. mirabilis UC 6671 = assay: standard microplate test in BHI Agar, MIC; settings: Proteus mirabilis, UC6671, 37°, 20 hours
Method: as §2, §3, §4, §5, §6, §7

P. morganii UC 3186 = assay: standard microplate test in BHI Agar, MIC; settings: Morganella morganii, UC3186, 20 h
Method: as §2, §3, §4, §5, §6, §7

P. rettgeri UC 339 = assay: standard microplate test in BHI Agar, MIC; settings: Providencia rettgeri, UC339, 20 h
Method: as §2, §3, §4, §5, §6, §7

P. vulgaris UC 93 [3] = assay: standard microplate test in BHI Agar, MIC; settings: Proteus vulgaris, UC93, 37°, 20 hours
Method: as §2, §3, §4, §5, §6, §7

Ps. aeruginosa UC 95 [4] = assay: standard microplate test in BHI Agar, MIC; settings: Pseudomonas aeruginosa, UC95, 20 h
Method: as §2, §3, §4, §5, §6, §7

S. aureus UC 76 = assay: standard microplate test in BHI Agar, MIC; settings: Staphylococcus aureus, UC76, 20 h
Method: as §2, §3, §4, §5, §6, §7

S. faecalis UC 694 = assay: standard microplate test in BHI Agar, MIC; settings: Enterococcus faecalis, UC694, 20 h
Method: as §2, §3, §4, §5, §6, §7

S. flexneri UC 143 = assay: standard microplate test in BHI Agar, MIC; settings: Shigella flexneri, UC143, 37°, 20 hours
Method: as §2, §3, §4, §5, §6, §7

S. marcescens UC 131 = assay: standard microplate test in BHI Agar, MIC; settings: Serratia marcescens, UC131, 37°, 20 hours
Method: as §2, §3, §4, §5, §6, §7

S. pneumoniae I UC 41 = assay: standard microplate test in BHI Agar, MIC; settings: Streptococcus pneumoniae, UC41, 37°, 20 hours, read-out: Minimum Inhibitory Concentration
Method: as §2, §3, §4, §5, §6, §7

S. pyogenes UC 152 = assay: standard microplate test in BHI Agar, MIC; settings: Streptococcus pyogenes, UC152, 20 h
Method: as §2, §3, §4, §5, §6, §7

S. schottmuelleri UC 126 = assay: standard microplate test in BHI Agar, MIC; settings: 37°, 20 hours
Method: as §2, §3, §4, §5, §6, §7

S. typhi UC 215 = assay: standard microplate test in BHI Agar, MIC; settings: Salmonella enterica, BHI Agar, 37°, 20 hours
Method: as §2, §3, §4, §5, §6, §7

[5] = read-out: Minimal Inhibitory Concentration
[6] = read-out: Minimum Inhibitory Concentration

For NC[C@H]1O[C@H](O[C@H]2[C@H](O)[C@@H](O)[C@H](N)C[C@@H]2N)[C@H](N)[C@@H](O)[C@@H]1O [Neamine], the “Zones of Inhibition” value (B. cereus UC 3145; 1 mg/ml) was 23 mm, the zone of inhibition at 100 µg/mL (B. cereus UC 3145; Bacillus cereus, UC3145, read-out: Zones of Inhibition, 0.1 mg/ml) was 15 mm and the zone of inhibition at 1000 µg/mL (B. cereus UC 3145; Bacillus cereus, UC3145, read-out: Zones of Inhibition, 1 mg/ml) was 24 mm. The “Zones of Inhibition” value (B. subtilis UC 564; 0.1 mg/ml) was 28 mm, the “Zones of Inhibition” value (B. subtilis UC 564; 1 mg/ml) was 37 mm and the zone of inhibition at 100 µg/mL (B. subtilis UC 564; Bacillus subtilis, UC564, read-out: Zones of Inhibition, 0.1 mg/ml) was 30 mm. The zone of inhibition at 1000 µg/mL (B. subtilis UC 564; Bacillus subtilis, UC564, read-out: Zones of Inhibition, 1 mg/ml) was 39 mm, the “Zones of Inhibition” value (E. coli UC 51; 0.1 mg/ml) was 18 mm and the “Zones of Inhibition” value (E. coli UC 51; 1 mg/ml) was 25 mm. For the same compound, the zone of inhibition at 100 µg/mL (E. coli UC 51; Escherichia coli, UC51, read-out: Zones of Inhibition, 0.1 mg/ml) was 19 mm, the zone of inhibition at 1000 µg/mL (E. coli UC 51; Escherichia coli, UC51, read-out: Zones of Inhibition, 1 mg/ml) was 27 mm and the “Zones of Inhibition” value (K. pneumoniae UC 57; 0.1 mg/ml) was 26 mm. For the same compound, the “Zones of Inhibition” value (K. pneumoniae UC 57; 1 mg/ml) was 32 mm, the zone of inhibition at 100 µg/mL (K. pneumoniae UC 57; Klebsiella pneumoniae, UC57, read-out: Zones of Inhibition, 0.1 mg/ml) was 27 mm and the zone of inhibition at 1000 µg/mL (K. pneumoniae UC 57; Klebsiella pneumoniae, UC57, read-out: Zones of Inhibition, 1 mg/ml) was 34 mm. The “Zones of Inhibition” value (P. vulgaris UC 93 [1]; 0.1 mg/ml) was 15 mm, the “Zones of Inhibition” value (P. vulgaris UC 93 [1]; 1 mg/ml) was 28 mm and the zone of inhibition at 100 µg/mL (P. vulgaris UC 93 [1]; Proteus vulgaris, UC93, read-out: Zones of Inhibition, 0.1 mg/ml) was 18 mm. For the same compound, the zone of inhibition at 1000 µg/mL (P. vulgaris UC 93 [1]; Proteus vulgaris, UC93, read-out: Zones of Inhibition, 1 mg/ml) was 27 mm, the “Zones of Inhibition” value (Ps. aeruginosa UC 95 [2]; 1 mg/ml) was 18 mm and the zone of inhibition at 1000 µg/mL (Ps. aeruginosa UC 95 [2]; Pseudomonas aeruginosa, UC95, read-out: Zones of Inhibition, 1 mg/ml) was 17 mm. The “Zones of Inhibition” value (S. aureus UC 80; 0.1 mg/ml) was 18 mm, the “Zones of Inhibition” value (S. aureus UC 80; 1 mg/ml) was 26 mm and the zone of inhibition at 100 µg/mL (S. aureus UC 80; Staphylococcus aureus, UC80, read-out: Zones of Inhibition, 0.1 mg/ml) was 20 mm. For the same compound, the zone of inhibition at 1000 µg/mL (S. aureus UC 80; Staphylococcus aureus, UC80, read-out: Zones of Inhibition, 1 mg/ml) was 29 mm, the zone of inhibition at 100 µg/mL (S. gallinarum UC 265) was 19 mm and the zone of inhibition at 1000 µg/mL (S. gallinarum UC 265) was 29 mm. The zone of inhibition at 1000 µg/mL (S. lutea UC 130) was 17 mm, the “Zones of Inhibition” value (S. schottmeulleri UC 126; 0.1 mg/ml) was 15 mm and the zone of inhibition at 100 µg/mL (S. schottmeulleri UC 126; 0.1 mg/ml, read-out: Zones of Inhibition) was 16 mm. For the same compound, the “Zones of Inhibition” value (S. schottmeulleri UC 126; 1 mg/ml) was 23 mm, the zone of inhibition at 1000 µg/mL (S. schottmeulleri UC 126; 1 mg/ml, read-out: Zones of Inhibition) was 24 mm and the MIC (D. pneumoniae UC 41) was 62.5 µg/mL (≈ 194 µM). The MIC (E. coli UC 311) was 125 µg/mL (≈ 388 µM), the MIC (K. pneumoniae UC 58; [5]) was 7.8 µg/mL (≈ 24.2 µM) and the MIC (K. pneumoniae UC 58; [6]) was 15.6 µg/mL (≈ 48.4 µM). The MIC (P. mirabilis UC 6671; [5]) was 250 µg/mL (≈ 776 µM), the MIC (P. mirabilis UC 6671; [6]) was 62.5 µg/mL (≈ 194 µM) and the MIC (P. morganii UC 3186; [5]) was 31.2 µg/mL (≈ 96.8 µM). It also gave an MIC (P. morganii UC 3186; [6]) of 62.5 µg/mL (≈ 194 µM), an MIC (P. rettgeri UC 339; [5]) of over 500 µg/mL and an MIC (P. rettgeri UC 339; [6]) of 250 µg/mL (≈ 776 µM). For the same compound, the MIC (P. vulgaris UC 93 [3]; [5]) was 62.5 µg/mL (≈ 194 µM), the MIC (P. vulgaris UC 93 [3]; [6]) was 62.5 µg/mL (≈ 194 µM) and the MIC (Ps. aeruginosa UC 95 [4]; [5]) was over 500 µg/mL. The MIC (Ps. aeruginosa UC 95 [4]; [6]) was over 500 µg/mL, the MIC (S. aureus UC 76; [5]) was 7.8 µg/mL (≈ 24.2 µM) and the MIC (S. aureus UC 76; [6]) was 3.9 µg/mL (≈ 12.1 µM). For the same compound, the MIC (S. faecalis UC 694; [5]) was over 500 µg/mL, the MIC (S. faecalis UC 694; [6]) was over 500 µg/mL and the MIC (S. flexneri UC 143; [5]) was 125 µg/mL (≈ 388 µM). It also gave an MIC (S. flexneri UC 143; [6]) of 62.5 µg/mL (≈ 194 µM), an MIC (S. marcescens UC 131; [5]) of 250 µg/mL (≈ 776 µM) and an MIC (S. marcescens UC 131; [6]) of 250 µg/mL (≈ 776 µM). It also gave an MIC (S. pneumoniae I UC 41) of 62.5 µg/mL (≈ 194 µM), an MIC (S. pyogenes UC 152; [5]) of 7.8 µg/mL (≈ 24.2 µM) and an MIC (S. pyogenes UC 152; [6]) of 7.8 µg/mL (≈ 24.2 µM). It also gave an MIC (S. schottmuelleri UC 126; [5]) of 15.6 µg/mL (≈ 48.4 µM), an MIC (S. schottmuelleri UC 126; [6]) of 31.2 µg/mL (≈ 96.8 µM) and an MIC (S. typhi UC 215; [5]) of 31.2 µg/mL (≈ 96.8 µM). For the same compound, the MIC (S. typhi UC 215; [6]) was 15.6 µg/mL (≈ 48.4 µM).
